Experimental data as given in US20030039697A1, “Matrices containing nitric oxide donors and reducing agents and their use” (priority 2002, published 2003).

Tested on: E. coli
Format: cell-based

N[C@@H](CCC(=O)N[C@@H](CSN=O)C(=O)NCC(=O)O)C(=O)O [GSNO, S-nitroso-L-glutathione]
growth of bacteria (E. coli) with coated catheter segments: inhibits growth of bacteria
